# Reference: ChEMBL document CHEMBL4373723 (J Med Chem, 2019)
# pIC50, pKd: −log10 of the molar value. Active and inactive are the calls of the source. The rule behind the calls is not given here.
# Legend:
# Homo sapiens [1] = species: Homo sapiens; assay: Modulation of Frizzled in human Caco2 cells assessed as protection against 0.25 to 0.5 ng/ml TcdB-induced cell rounding at 50 uM incubated for 24 hrs by phalloidin conjugated AlexaFluor488 dye based fluorescence microscopy relative to control
# [2] = Binding affinity to recombinant human/mouse Frizzled-2 (Gln29 to Leu168 residues)/human IgG1 chimeric protein expressed in mouse NS0 cells assessed as reduction in interaction of TcdB with FZD7 incubated for 1 hr by competition ELISA; format: cell-based
# Frizzled-7 [3] = target: T1, Frizzled-7 (Homo sapiens, UniProt O75084); assay: Binding affinity to recombinant human Frizzled-7 (Gln33 to Leu185 residues)/human IgG1 chimeric protein expressed in CHO cells assessed as reduction in interaction of TcdB with FZD7 incubated for 1 hr by competition ELISA; format: cell-based
# [4] = 40 min, 20 µM
# Frizzled-7 [5] = target: T1, Frizzled-7; conditions: CHO
# Description: Binding affinity to recombinant human Frizzled-7 (Gln33 to Leu185 residues)/human IgG1 chimeric protein expressed in CHO cells assessed as association rate constant by SPR assay
# Homo sapiens [6] = species: Homo sapiens; assay: Modulation of Frizzled in human Caco2 cells assessed as protection against TcdB-induced cell rounding incubated for 24 hrs by phalloidin conjugated AlexaFluor488 dye based fluorescence microscopy
# [7] = mouse, serum, 24 h, 200 µM
# Homo sapiens [8] = species: Homo sapiens; assay: Modulation of Frizzled in human Caco2 cells assessed as protection against 0.1 to 1 ng/ml TcdB-induced cell rounding incubated for 24 hrs by phalloidin conjugated AlexaFluor488 dye based fluorescence microscopy relative to control
# Frizzled-7 [9] = target: T1, Frizzled-7; format: cell-based; conditions: cho
# [10] = 40 min, 20 µM; remark: listed apart in the source
# Homo sapiens [11] = species: Homo sapiens; assay: Modulation of Frizzled in human Caco2 cells assessed as protection against 4 ng/ml TcdB-induced cell rounding at 50 uM incubated for 24 hrs by phalloidin conjugated AlexaFluor488 dye based fluorescence microscopy relative to control
# Cricetulus griseus = species: Cricetulus griseus; assay: Modulation of Frizzled in CHOK1 cells assessed as protection against 5 ng/ml TcdB-induced cell rounding at 50 uM incubated for 24 hrs by phalloidin conjugated AlexaFluor488 dye based fluorescence microscopy relative to control
# [12] = Stability in presence of TCEP assessed as disulfide reduction at 20 uM measured over 40 mins at 37 degC by LC-MS analysis; format: physicochemical
# Frizzled-7 [13] = target: T1, Frizzled-7; assay: biochemical; format: cell-based, CHO; conditions: read-out: Kd
# Frizzled-7 [14] = target: T1, Frizzled-7; assay: Inhibition of Frizzled-7 in HEK293 cells expressing Wnt assessed as reduction in Wnt signaling by firefly luciferase reporter gene assay; format: cell-based
# [15] = Stability in cell culture medium containing 10% fetal bovine serum at 200 uM at 37 degC measured over 24 hrs by LC-MS analysis; format: ADME, cell-free, Bos taurus; conditions: cattle
smiles,measurement,setting,value
CC[C@H](C)[C@H](NC(=O)[C@H](Cc1cnc[nH]1)NC(=O)[C@H](CSSC[C@H](NC(=O)[C@H](Cc1c[nH]c2ccccc12)NC(=O)[C@H](CC(C)C)NC(=O)[C@H](CCC(=O)O)NC(=O)[C@H](CC(C)C)NC(=O)[C@H](CC(=O)O)NC(=O)[C@H](CC(=O)O)NC(=O)[C@@H](NC(C)=O)[C@H](C)O)C(=O)N[C@@H](Cc1cnc[nH]1)C(=O)N[C@H](C(=O)N[C@@H](CCSC)C(=O)N[C@@H](Cc1ccc(O)cc1)C(N)=O)[C@@H](C)CC)NC(=O)[C@H](Cc1c[nH]c2ccccc12)NC(=O)[C@H](CC(C)C)NC(=O)[C@H](CCC(=O)O)NC(=O)[C@H](CC(C)C)NC(=O)[C@H](CC(=O)O)NC(=O)[C@H](CC(=O)O)NC(=O)[C@@H](NC(C)=O)[C@H](C)O)C(=O)N[C@@H](CCSC)C(=O)N[C@@H](Cc1ccc(O)cc1)C(N)=O,Activity,Homo sapiens [1],Active
same,inhibition,[2],Dose-dependent effect
same,inhibition,Frizzled-7 [3],Dose-dependent effect
same,Stability,[4],Unstable
same,Ka,Frizzled-7 [5],166 ×10⁵ /M/s
same,inhibition,Homo sapiens [6],Dose-dependent effect
same,Stability,[7],Stable
same,Activity,Homo sapiens [8],34 to 69%
same,Kd,Frizzled-7 [9],0.64 ×10⁻³ /s
same,Stability,[10],Unstable
same,Activity,Homo sapiens [11],inactive
same,Activity,Cricetulus griseus,Active
same,Stability,[12],Unstable
same,pKd,Frizzled-7 [13],10.41
same,pIC50,Frizzled-7 [14],8.04
same,Stability,[15],Stable
